Data as given in patent US20240279283A1, “CYCLIC PEPTIDE ANTIBIOTICS” (priority 2021, published 2024).
Bridge positions count the residues as written; N and C are the ends. Square brackets hold non-standard residues; d marks the D form. Peptide text beside a SMILES is read from it. 1Nal = N[C@@H](Cc1cccc2ccccc12)C(=O)O; His(π-Me) = Cn1cncc1C[C@H](N)C(=O)O; NMeY = CN[C@@H](Cc1ccc(O)cc1)C(=O)O; aThr = C[C@H](O)[C@H](N)C(=O)O; Abu = CC[C@H](N)C(=O)O

Experiments:
Assay type in all cases: cell-based
Conditions in all cases: LB broth, 5×10^5 CFU/ml, 37° C., 18 hours, scored by eye
E. cloacae ATCC222 = assay: Minimum Inhibitory Concentration (MIC) determination, E. cloacae ATCC222; design: unit not given here
Experimental: (§1) MICs were determined by performing two-fold serial dilutions of peptides in LB broth to a final volume of 0.1 ml in round-bottom 96-well assay plates (Corning Life Sciences No 3788). Peptides were initially resuspended in 100% DMSO to 10 mM and subsequently diluted in LB medium to the appropriate concentration. Each well was inoculated with 5×10^5 CFU/ml of the screening stain and incubated at 37° C. without agitation for 18 hours. Plates were scored by eye, and the lowest compound concentration preventing visible growth was determined to be the MIC.

K. pneumoniae ATCC43816 = assay: Minimum Inhibitory Concentration (MIC) determination, K. pneumoniae ATCC43816; design: unit not given here
Experimental: as §1

E. coli 25922 IMP = assay: Minimum Inhibitory Concentration (MIC) determination, E. coli 25922 IMP
Method in brief: (§2)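 Peptides, diluted two-fold in LB broth from 10 mM DMSO stocks, were inoculated with 5×10^5 CFU/ml of each strain. Incubation was 18 h at 37 °C without shaking. MIC is the lowest concentration preventing visible growth, scored by eye.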

E. coli BW25113 = assay: Minimum Inhibitory Concentration (MIC) determination, E. coli BW25113; design: unit not given here
Method in brief: as §2

E. coli 25922 = assay: Minimum Inhibitory Concentration (MIC) determination, E. coli 25922; design: unit not given here
Method in brief: as §2

| Structure (SMILES) | MIC E. cloacae ATCC222 WUXI::MIC (E. cloacae ATCC222) | MIC K. pneumoniae ATCC43816 Wuxi::MIC (K. pneumoniae ATCC43816) | MIC E. coli 25922 IMP WUXI::MIC (E. coli 25922 IMP) | MIC E. coli BW25113 WUXI::MIC (E. coli BW25113) | MIC E. coli 25922 WUXI::MIC (E. coli 25922) |
| --- | --- | --- | --- | --- | --- |
| CC[C@@H]1NC(=O)[C@H](Cc2ccccc2)NC(=O)CSC[C@@H](C(=O)NCC(N)=O)NC(=O)[C@H](Cc2cncn2C)NC(=O)[C@H](CCCNC(=N)N)NC(=O)[C@H](Cc2c[nH]cn2)NC(=O)[C@H](Cc2ccc(O)cc2)N(C)C(=O)[C@H](CCCNC(=N)N)NC(=O)[C@H]([C@H](C)O)NC(=O)CNC(=O)[C@H](Cc2c[nH]cn2)NC(=O)[C@H](Cc2cccc3ccccc23)NC1=O [Compound 31] ({CH2CO}-F[Abu][1Nal]HG[aThr]R[NMeY]HR[His(π-Me)]CG-NH2; thioether N-12) | 6.3 | 50 | 0.016 | 50 | 25 |
| CC[C@H](C)[C@@H]1NC(=O)[C@H](Cc2ccccc2)NC(=O)CSC[C@@H](C(=O)NCC(N)=O)NC(=O)[C@H](Cc2cncn2C)NC(=O)[C@H](CCCNC(=N)N)NC(=O)[C@H](Cc2cnc[nH]2)NC(=O)[C@H](Cc2ccccc2)N(C)C(=O)[C@H](CCCNC(=N)N)NC(=O)[C@H](CO)NC(=O)CNC(=O)[C@H](Cc2cnc[nH]2)NC(=O)[C@H](Cc2c[nH]c3ccccc23)NC1=O (racemic) [Compound 15] | 3.1 | 75 | 0.016 | 100 | 50 |
| CC(C)[C@@H]1NC(=O)[C@H](Cc2ccccc2)NC(=O)CSC[C@@H](C(=O)NCC(N)=O)NC(=O)[C@H](Cc2cnc[nH]2)NC(=O)[C@H](CCCNC(=N)N)NC(=O)[C@H](Cc2cnc[nH]2)NC(=O)[C@H](Cc2ccccc2)N(C)C(=O)[C@H](CCCNC(=N)N)NC(=O)[C@H](CO)NC(=O)CNC(=O)[C@H](Cc2cnc[nH]2)NC(=O)[C@H](Cc2c[nH]c3ccccc23)NC1=O (racemic) [Compound 1, rac-(3R,6S,9S,12S,15S,18S,21S,27S,30S, 33S,36S)-N-(2-amino-2-oxo-ethyl)-15,36-dibenzyl-9,18-bis(3-guanidinopropyl)-21-(hydroxymethyl)-6,12,27-tris(1H-imidazol-5-ylmethyl)-30-(1H-indol-3-ylmethyl)-33-isopropyl-16-methyl-5,8,11,14,17,20,23,26,29,32,35,38-dodecaoxo-1-thia-4,7,10,13,16,19,22,25,28,31,34,37-dodecazacyclononatriacontane-3-carboxamide] | 6.3 | 50 | 0.031 | 100 | 50 |
| CC(C)[C@@H]1NC(=O)[C@H](Cc2ccccc2)NC(=O)CSC[C@@H](C(=O)NCC(N)=O)NC(=O)[C@H](Cc2cncn2C)NC(=O)[C@H](CCCNC(=N)N)NC(=O)[C@H](Cc2cnc[nH]2)NC(=O)[C@H](Cc2ccc(O)cc2)N(C)C(=O)[C@H](CCCNC(=N)N)NC(=O)[C@H](CO)NC(=O)CNC(=O)[C@H](Cc2cnc[nH]2)NC(=O)[C@H](Cc2c[nH]c3ccccc23)NC1=O (racemic) [Compound 14] | 1.19 | 25 | 0.0119 | 37.5 | 25 |
